According to patent publication US20080279923A1, “Use of Microtubule Stabilizing Compounds for the Treatment of Lesions of Cns Axons” (Max-Planck-Gesellschaft zur Forderung de Wissensch, priority 2005, published 2008):
Values joined by “and” are separate entries in the source; they are usually repeats but may differ in a detail not shown here. Identical values can stand only once.

Legend:
rat hippocampal neurons [1] = experiment: Microtubule stability assay: Nocodazole-induced microtubule retraction in hippocampal neurons; assay type: cell-based; conditions: for cells in which microtubule retraction was significantly higher in minor neurites compared to axons: stage 3 neurons, 5 min
Procedure: (§1) Primary hippocampal neurons derived from rat embryos were cultured following the protocol of Goslin and Banker (1991) and de Hoop et al. (1997). In brief, the hippocampi of E18 rats were dissected, trypsinized, and physically dissociated. The cells were then washed in HBSS, and 1.0-1.3×10^5 cells were plated onto poly-lysine-treated glass coverslips in 6 cm petri dishes containing minimal essential medium (MEM) and 10% heat-inactivated horse serum. The cells were kept in 5% CO2 at 36.5° C. After 12-18 hr, the coverslips were transferred to a 6 cm dish containing astrocytes in MEM and N2 supplements.
Analyzing short term microtubule depolymerization, the fate of individual neurons was followed. Cells localized on the grid of a Cellocate coverslip were photographed. The coverslip was then transferred into HEPES-buffered HBSS containing Nocodazole and incubated for 5 min at 36.5° C. in the incubator. [As Nocodazole is insoluble in aqueous solutions, special care was taken to ensure equal distribution of Nocodazole in HBSS.] After short term incubation, neurons were PHEM-fixed to eliminate depolymerized tubulin subunits and allow clear visualization of microtubules.
To visualize microtubules clearly, an alternative fixation method (PHEM-fixation) was used if required. To get rid of unpolymerized tubulin subunits, cells were simultaneously fixed and permeabilized for 15 min at 37° C. in PHEM buffer (60 mM PIPES and 25 mM HEPES) containing 3.7% paraformaldehyde, 0.25% glutaraldehyde, 5 mM EGTA, 1 mM MgCl, 3.7% sucrose, and 0.1% Triton X-100 (adapted from Smith, 1994) and quenched as above.
To determine the ratio of acetylated to tyrosinated α-Tubulin, the fluorescence signals of different channels of pictures taken with 63× magnification were compared. In the medial part of each process, the average fluorescence intensity of both acetylated and tyrosinated α-Tubulin was measured in a square of 5×5 pixel and the ratio of the values was determined. For minor neurites of the same cell, the average of the ratios was calculated in polarized neurons and used for comparison to the ratio of the corresponding axon. For unpolarized neurons, the highest ratio was compared to the average of the ratios of the remaining neurites. To measure microtubule retraction after Nocodazole treatment, fixed and stained neurons were relocated on the Cellocate coverslips. Pictures were taken of both the actin cytoskeleton (visualized by staining with Rhodamine-coupled Phalloidin) and the microtubules (stained with an antibody recognizing α-Tubulin). The actin cytoskeleton outlining the neuron was used as a reference point to measure retraction of microtubules from the distal part of the processes towards the cell body.
To test the resistance of microtubules to depolymerization, we applied the drug Nocodazole to stage 3 neurons, followed by fixation [in 3.7% PFA/Sucrose, 0.25% Glutaraldehyde, 1×PHEM-buffer and 0.1% Triton X-100] after a brief incubation (FIG. 2 A). Nocodazole is known to disrupt microtubules by binding to β-Tubulin and […], thus inhibiting microtubule dynamics. After fixation, neurons were doublestained for F-Actin and α-Tubulin or acetylated and tyrosinated α-Tubulin. Fluorescence microscopy and CCD imaging was used to quantify retraction of microtubules from the distal end of processes or distribution of posttranslational modifications of α-Tubulin after partial depolymerization of the microtubule cytoskeleton.

rat hippocampal neurons [2] = experiment: Process and axon formation during long term incubation with low drug concentrations; assay type: cell-based; conditions: for number of processes which exceeded 60 μm: 2 further DIV; for number of processes per cell: read at 3 DIV; for total neurite length: 3 DIV
Procedure: as §1
For long term incubation, 0.1 to 30 nM Taxol (Sigma), 0.1 to 1 μM cytochalasin D (Sigma) or 3 nM to 10 μM Nocodazole (Sigma) were added to culture medium after 1 day in culture, and cells were further incubated at 36.5° C. Drugs were kept as stock solutions in DMSO at −20° C. (Taxol: 5 mM; Cytochalasin D: 10 mM; Nocodazole: 6.67 mM).
To detect proteins by immunohistochemistry, cells were fixed in 4% para-formaldehyde for 15 min at 37° C. (20 min for Tau-1 stainings), aldehyde groups were quenched in 50 mM ammonium chloride for 10 min, and the cells were then extracted with 0.1% Triton X-100 for 3 min.
Length and intensity measurements were done using Scion Image Beta 4.0.2 for MS Windows (based on NIH-image). For length measurements, cVisTec Professional 1.0 (cVisTec, Munich, Germany) was additionally used.
So far we had shown that axonal microtubules have a higher ability to resist depolymerization under harsh microtubule-destabilizing conditions. If there was a putative stability difference in axons and minor neurites, we hypothesized that particular growth conditions should allow formation of axons but not minor neurites. To assess the effect of modest microtubule destabilization on process formation, we treated hippocampal neurons after 1 DIV with low concentrations of Nocodazole. After 2 further DIV under such growth conditions cells were fixed [with 4% PFA/Sucrose] and stained for the axonal marker Tau-1. Using fluorescence microscopy, we evaluated effects on the formation of axons and minor neurites.
To test the influence of microtubule stabilization on axon formation we treated hippocampal neurons after 1 DIV with low concentrations of the microtubule-stabilizing drug Taxol (FIGS. 4A and H). […] Taxol (also known as Paclitaxel) is successfully used as an anti-cancer drug so far as it arrests dividing cells in the G2-M-phase of cell division. Neurons grown in the presence of low concentrations of Taxol were fixed [with 4% PFA/sucrose] after 3 to 7 DIV and stained for the axonal marker Tau-1 or the dendritic marker MAP2. Under control conditions, neurons had formed one axon and several minor neurites (FIGS. 4D and E). […] The number of processes which exceeded 60 μm had increased more than 2-fold by Taxol treatment (DMSO 1.53±0.05, 3 nM Taxol 2.93±0.46, 10 nM Taxol 3.58±0.54) (FIG. 4F). Similarly, the number of cells with more than one Tau-1-positive process went up about 4-fold in a concentration-dependent manner in Taxol-treated neurons (from 20.19±3.19% in DMSO-treated neurons to 80.81±1.71% neurons treated with 10 nM Taxol) (FIG. 4G).

[3] = tested on: lesioned dorsal column (CNS) axons; experiment: Taxol application immediately after dorsal column lesion: retraction bulb formation, in vivo imaging; parameters: species or system GFP-M mice
Description: (§2) We used an Olympus SZX-12 fluorescent stereomicroscope equipped with 1× Plan Apochromat objective and 1.6× Plan Fluorite objective (Olympus). The ColorView II camera integrated to the microscope was used to capture images through Analysis FIVE software (Soft Imaging System). Animals were anesthetized as described. After removing the laminae at T11/12 level, a small unilateral lesion was applied with the vannas spring scissors (FST) by transecting only the superficial axons of the dorsal columns. We imaged the injury site before and after lesion by acquiring serial images. The animals were kept on a heating pad during the imaging session.
(§3) A small unilateral spinal cord lesion at T12 level was performed as described. 10 μl of 1 μM or 5 μM taxol (Sigma-Aldrich, diluted in Saline) or saline as control was applied onto the lesion site each hour starting immediately after or 24 hours after lesioning. The lesion sites were visualized by in vivo imaging as described. The animals' anesthesia was boosted after 3 hours. At the end of the observation period animals were perfused and prepared for the confocal imaging as described.
(§4) The size of retraction bulbs and growth cones was quantified as follows: the maximum diameter of the retraction bulb and growth cone at the tip of the axon was measured and divided by the axon diameter of the same end structure where the axon looked normal.
The distance of taxol and saline treated axons to the lesion site was quantified as follows: The lesion site was outlined from the in vivo binocular images. We then measured the distance of the axonal tips to the proximal edge of the lesion.

[4] = tested on: lesioned dorsal column (CNS) axons; experiment: Taxol application 24 hours after dorsal column lesion: regenerating sprouts; assay type: in vivo, mice
Description: as §2, §3
The length of the sprouts quantified on confocal images. The length of all sprouts including sprouts emerging from sprouts measured and summed up for final value. As number of sprouts, only primary sprouts emerging from directly axonal shaft were quantified.

astrocytes = experiment: Astrocyte numbers in taxol treated cultures; assay type: cell-based
neurons = conditions: CNS; cited from earlier work
[5] = i.v. in mice; cited from earlier work
[6] = tested on: growth cones of lesioned sciatic nerve axons; experiment: Nocodazole application onto lesioned sciatic nerve (growth cone to bulb conversion); assay type: in vivo, GFP-M mice
Procedure: The mice were anesthetized as described. The sciatic nerve was exposed at around 2.5 cm from the DRG cell bodies by a small incision and crushed with forceps for ten seconds. The incision was sutured and the skin stapled. The anesthesia was reversed and the animals were transferred to a heating pad for the following 24 hours.
Sciatic nerve lesion was performed as described. After 24 hours animals were re-anesthetized and 10 μl of 330 μM of nocodazole (Sigma-Aldrich, diluted in 5% DMSO in PBS) or 5% DMSO alone was applied onto lesion site with a pipette. The injury site was closed and animals were perfused 24 hours after nocodazole or DMSO application for staining and imaging.
as §4

[7] = 5 μM Nocodazole, brief incubation
[8] = stage 2 neurons (1 DIV), 3.3 μM Nocodazole

SMILES: CC(=O)O[C@H]1C(=O)[C@@]2(C)[C@H]([C@H](OC(=O)c3ccccc3)[C@]3(O)C[C@H](OC(=O)[C@H](O)[C@@H](NC(=O)c4ccccc4)c4ccccc4)C(C)=C1C3(C)C)[C@]1(OC(C)=O)CO[C@@H]1C[C@@H]2O [Taxol, Tax-11-en-9-one, 5beta,20-epoxy-1,2alpha,4,7beta, 10beta,13alpha-hexahydroxy-, 4,10-diacetate 2-benzoate, 13-ester with (2R,3S)—N-benzoyl-3-phenylisoserine (8Cl)]
- microtubule retraction in Taxol-induced axon-like processes (rat hippocampal neurons [1]; 10 nM Taxol for 24 h, then 5 μM Nocodazole briefly): 7.48±1.761 μm
- number of processes which exceeded 60 μm (rat hippocampal neurons [2]; 3 nM Taxol from 1 DIV): 2.93±0.46
- cells with more than one Tau-1-positive process (rat hippocampal neurons [2]; 10 nM Taxol): 80.81±1.71%
- number of processes which exceeded 60 μm (rat hippocampal neurons [2]; 10 nM Taxol from 1 DIV): 3.58±0.54
- increase of the number of cells with more than one Tau-1-positive process (rat hippocampal neurons [2]; 10 nM Taxol versus DMSO): about 4 fold
- increase of the number of processes which exceeded 60 μm (rat hippocampal neurons [2]; Taxol treatment versus DMSO): more than 2 fold
- tip/axon ratio of retraction bulbs formed during treatment ([3]; 1 μM taxol, 5 biggest retraction bulbs per animal, 6 hours): 2.53±0.54
- animals with proximal axonal stumps as close as 25 μm to the injury site ([3]; 1 μM taxol, 6 hours after injury): 6 out of 11
- axons that developed retraction bulbs (tip/axon ratio >2) ([3]; 10 μl of 1 μM taxol once per hour from immediately after injury, first 6 hours): 22.8%±13.1%
- animals in which the extended retraction bulb with filopodia like extensions was observed ([4]; 5 μM taxol, 48 h post injury): 4 out of 12
- sprout terminals with extended retraction bulb with several filopodia like extensions ([4]; 5 μM taxol, 48 h post injury): 8.9%±5.0%
- sprout terminals with slim growth cone morphology ([4]; 5 μM taxol, 48 h post injury): 57%±20%
- sprout terminals with small retraction bulb morphology ([4]; 5 μM taxol, 48 h post injury): 41.8%±16.6%
- total number of the sprouts from one axon ([4]; 10 μl of 5 μM taxol once each hour, 4-5 times, from 24 h post injury, read 48 h post injury): 7.83±1.79
- astrocyte numbers (astrocytes): drastic reduction in astrocyte numbers
- neuronal death (neurons): induces dose-dependent neuronal death

SMILES: CCC(=O)O[C@H]1C[C@H]2OC[C@@]2(OC(C)=O)[C@H]2[C@H](OC(=O)c3ccccc3)[C@]3(O)C[C@H](OC(=O)[C@H](O)[C@@H](NC(=O)OC(C)(C)C)c4ccco4)C(C)=C([C@@H](O)C(=O)[C@]12C)C3(C)C [MAC-321, 5beta, 20-epoxy-1, 2alpha-, 4-, 7beta-, 10beta-, 13alpha-hexahydroxytax-11-en-9-one 4 acetate 2 benzoate 7-propionate 13-ester with (2R,3S)—N-tertbutoxycarbonyl-3-(2-furyl)isoserine]
- Lethal dose [5]: 140 mg/kg

SMILES: COC(=O)Nc1nc2ccc(C(=O)c3cccs3)cc2[nH]1 [Nocodazole]
- microtubule retraction of minor neurites (rat hippocampal neurons [1]; [7]): 12.47±2.221 μm
- retraction of axonal microtubules (rat hippocampal neurons [1]; [7]): 8.89 μm
- average microtubule retraction of the remaining minor neurites (rat hippocampal neurons [1]; [8]): 13.71±2.84 μm
- microtubule retraction in the minor neurite with the lowest retraction (rat hippocampal neurons [1]; [8]): 4.50±1.27 μm
- cells in which microtubule retraction was significantly higher in minor neurites compared to axons (rat hippocampal neurons [1]; 3.3 μM Nocodazole): 59.3±6.9%
- cells in which microtubule retraction was significantly higher in minor neurites compared to axons (rat hippocampal neurons [1]; 5 μM Nocodazole): 60%±5.1%
- number of processes per cell (rat hippocampal neurons [2]; 15 nM Nocodazole from 1 DIV): 3.58±0.08
- increase of total neurite length from day 1 to day 3 in vitro (rat hippocampal neurons [2]; 45 nM Nocodazole): more than 3 fold
- number of processes per cell (rat hippocampal neurons [2]; 45 nM Nocodazole from 1 DIV): 2.64±0.08
- total neurite length (rat hippocampal neurons [2]; 45 nM Nocodazole): 197.31 μm
- increase of total neurite length from day 1 to day 3 in vitro (rat hippocampal neurons [2]; 75 nM Nocodazole): > 2 fold
- number of processes per cell (rat hippocampal neurons [2]; 75 nM Nocodazole from 1 DIV): 2.20±0.18
- total neurite length (rat hippocampal neurons [2]; 75 nM Nocodazole): 134.89 μm
- axons that transformed their growth cones into a bulb ([6]; 10 μl of 330 μM nocodazole 24 h after sciatic nerve crush, evaluated 24 h after treatment): 42.3%±13.2% and 45%±13%
- tip/axon shaft ratio of nocodazole induced retraction bulbs ([6]; 10 μl of 330 μM nocodazole, 24 h after treatment): 4.25±0.56
